From patent publication USRE41614E1, “Synthetic analogs of ecteinascidin-743” (President and Fellows of Harvard College, priority 1998, dated 2010)
Values after ≈ are worked out from the molar mass of the structure shown. Like-named read-outs stand apart in the source and are kept apart here.

How the values were obtained:
Type in all cases: cell-based
[1] = test system: PC-3 (Prostate) human cancer cell line; experiment: In vitro anti-tumor screen, cancer cell antiproliferative assay, PC-3; details: for IC50: Homo sapiens
Description: (§1) The following tables summarize the activity of all the synthetic derivatives. […] Lower values represent higher activity.
(§2) ^9 Cancer cell antiproliferative assays were performed by Dr. Takashi Owa, a postdoctoral fellow in the Stuart L. Schreiber research group.

[2] = test system: A375 (Melanoma) human cancer cell line; experiment: In vitro anti-tumor screen, cancer cell antiproliferative assay, A375; details: for IC50: Homo sapiens
Description: as §1, §2

[3] = test system: A-549 (Lung) human cancer cell line; experiment: In vitro anti-tumor screen, cancer cell antiproliferative assay, A-549
Description: as §1, §2

[4] = test system: HCT116 (Colon) human cancer cell line; experiment: In vitro anti-tumor screen, cancer cell antiproliferative assay, HCT116
Description: as §1, §2

[5] = Table 8, additional biological data, fourth value of cell, read-out: IC50 (ng/mL) Prost.
[6] = A-375, Table 8, additional biological data, third value of cell, read-out: IC50 (ng/mL) Melan.
[7] = A549, Table 8, additional biological data, first value of cell, read-out: IC50 (ng/mL) Lung
[8] = HCT-116, Table 8, additional biological data, second value of cell, read-out: IC50 (ng/mL) Colon
[9] = Table 5, B-ring substitution at X1, prostate, >100 ng/mL considered inactive, read-out: IC50 PC-3
[10] = A-375, Table 5, B-ring substitution at X1, melanoma, >100 ng/mL considered inactive, read-out: IC50 A375
[11] = A549, Table 6, A-ring substitution at X2, lung, read-out: IC50 A-549
[12] = Table 5, B-ring substitution at X1, lung, >100 ng/mL considered inactive, read-out: IC50 A-549
[13] = HCT-116, Table 5, B-ring substitution at X1, colon, >100 ng/mL considered inactive, read-out: IC50 HCT-116
[14] = HCT-116, Table 6, A-ring substitution at X2, colon, read-out: IC50 HCT 116
[15] = Table 6, A-ring substitution at X2, prostate, read-out: IC50 PC-3
[16] = A-375, Table 6, A-ring substitution at X2, melanoma, read-out: IC50 A375

Row | SMILES | IC50 [1, 5] | IC50 [2, 6] | IC50 [3, 7] | IC50 [4, 8] | IC50 [1, 9] | IC50 [2, 10] | IC50 [3, 12] | IC50 [4, 13] | also measured
1 | COC1=C(C)C(=O)C2=C(C1=O)[C@@H]1[C@@H]3Cc4c(OC(C)=O)c(C)c5c(c4[C@H](CN4C(=O)c6ccccc6C4=O)N3[C@@H](C#N)[C@H](C2)N1C)OCO5 | 0.45 ng/mL (≈ 0.677 nM) | 0.3 ng/mL (≈ 0.451 nM) | 1.1 ng/mL (≈ 1.65 nM) | 0.53 ng/mL (≈ 0.797 nM) | – | – | – | – | –
2 | COCOc1c(OC)c(C)cc2c1[C@@H]1[C@@H]3Cc4c(OC(C)=O)c(C)c5c(c4[C@H](CN4C(=O)c6ccccc6C4=O)N3[C@@H](C#N)[C@H](C2)N1C)OCO5 | 68 ng/mL (≈ 97.9 nM) | 46 ng/mL (≈ 66.2 nM) | 160 ng/mL (≈ 230 nM) | 51 ng/mL (≈ 73.4 nM) | – | – | – | – | –
3 | COc1c(C)cc2c(c1O)[C@H]1N[C@@H](C2)[C@H](C#N)N2[C@@H](CN3C(=O)c4ccccc4C3=O)c3c(c(OC(C)=O)c(C)c4c3OCO4)C[C@@H]12 | 3.3 ng/mL (≈ 5.18 nM) | 1.9 ng/mL (≈ 2.98 nM) | 21 ng/mL (≈ 33 nM) | 3.5 ng/mL (≈ 5.5 nM) | – | – | – | – | –
4 | COc1c(C)cc2c(c1OC(C)=O)[C@@H]1[C@@H]3Cc4c(OC(C)=O)c(C)c5c(c4[C@H](CN4C(=O)c6ccccc6C4=O)N3[C@@H](C#N)[C@H](C2)N1C)OCO5 | 17 ng/mL (≈ 24.5 nM) | 8.3 ng/mL (≈ 12 nM) | 40 ng/mL (≈ 57.7 nM) | 20 ng/mL (≈ 28.9 nM) | – | – | – | – | –
5 | COc1c(C)c(Br)c2c(c1O)[C@@H]1[C@@H]3Cc4c(OC(C)=O)c(C)c5c(c4[C@H](CN4C(=O)c6ccccc6C4=O)N3[C@@H](C#N)[C@H](C2)N1C)OCO5 | 2 ng/mL (≈ 2.74 nM) | 0.47 ng/mL (≈ 0.644 nM) | 4.7 ng/mL (≈ 6.44 nM) | 1.3 ng/mL (≈ 1.78 nM) | – | – | – | – | –
6 | COc1c(C)cc2c(c1O)[C@@H]1[C@@H]3Cc4c(O)c(C)c5c(c4[C@H](CNC(=O)Cc4ccc(OC(C)=O)cc4)N3[C@@H](C#N)[C@H](C2)N1C)OCO5 | > 100 ng/mL | > 100 ng/mL | > 100 ng/mL | > 100 ng/mL | – | – | – | – | –
7 | COc1c(C)cc2c(c1O)[C@@H]1[C@@H]3CC4=C(C(=O)C(O)=C(C)C4=O)[C@H](CN4C(=O)c5ccccc5C4=O)N3[C@@H](C#N)[C@H](C2)N1C | 9 ng/mL (≈ 15.1 nM) | 2.1 ng/mL (≈ 3.53 nM) | 48 ng/mL (≈ 80.7 nM) | 13 ng/mL (≈ 21.9 nM) | – | – | – | – | –
8 | COc1c(C)cc2c(c1O)[C@@H]1[C@@H]3Cc4c(OC(C)=O)c(C)c5c(c4[C@H](CN4C(=O)c6ccccc6C4=O)N3[C@@H](C#N)[C@H](C2)N1C)OCO5 | 0.34 ng/mL (≈ 0.523 nM) | 0.13 ng/mL (≈ 0.2 nM) | 0.67 ng/mL (≈ 1.03 nM) | 0.39 ng/mL (≈ 0.599 nM) | – | – | – | – | –
9 | COc1c(C)c(Cl)c2c(c1O)[C@@H]1[C@@H]3Cc4c(OC(C)=O)c(C)c5c(c4[C@H](CN4C(=O)c6ccccc6C4=O)N3[C@@H](C#N)[C@H](C2)N1C)OCO5 | 0.73 ng/mL (≈ 1.07 nM) | 0.24 ng/mL (≈ 0.35 nM) | 1.9 ng/mL (≈ 2.77 nM) | 0.7 ng/mL (≈ 1.02 nM) | – | – | – | – | –
10 | COC1=C(C)C(=O)C2=C(C1=O)[C@H](CN1C(=O)c3ccccc3C1=O)N1[C@@H](C#N)[C@@H]3Cc4cc(C)c(OC)c(O)c4[C@H]([C@@H]1C2)N3C | 22 ng/mL (≈ 36.1 nM) | 9 ng/mL (≈ 14.8 nM) | > 100 ng/mL | 24 ng/mL (≈ 39.4 nM) | – | – | – | – | –
11 | COc1c(C)cc2c(c1O)[C@@H]1[C@@H]3Cc4c(OC(C)=O)c(C)c5c(c4[C@H](CN4C(=O)c6ccccc6C4=O)N3[C@@H](C#N)[C@H](C2)N1C)OCO5 [Compound 7] | – | – | – | – | 0.36 ng/mL (≈ 0.553 nM) | 0.11 ng/mL (≈ 0.169 nM) | 0.62 ng/mL (≈ 0.953 nM) | 0.25 ng/mL (≈ 0.384 nM) | IC50 PC-3 ([1]; Table 6, A-ring substitution at X2, prostate): 0.36 ng/mL (≈ 0.553 nM); IC50 A375 ([2]; Table 6, A-ring substitution at X2, melanoma): 0.11 ng/mL (≈ 0.169 nM); IC50 [3, 11]: 0.62 ng/mL (≈ 0.953 nM); IC50 [4, 14]: 0.25 ng/mL (≈ 0.384 nM)
12 | COc1c(C)cc2c(c1O)[C@@H]1[C@@H]3Cc4c(OC(C)=O)c(C)c5c(c4[C@H](CN4C(=O)c6ccc(N)cc6C4=O)N3[C@@H](C#N)[C@H](C2)N1C)OCO5 [Compound 20] | – | – | – | – | 2 ng/mL (≈ 3 nM) | 0.79 ng/mL (≈ 1.19 nM) | 14 ng/mL (≈ 21 nM) | 2.1 ng/mL (≈ 3.15 nM) | –
13 | COc1c(C)cc2c(c1O)[C@@H]1[C@@H]3Cc4c(OC(C)=O)c(C)c5c(c4[C@H](COC(=O)Nc4ccccc4)N3[C@@H](C#N)[C@H](C2)N1C)OCO5 [Compound 22] | – | – | – | – | 2.6 ng/mL (≈ 4.06 nM) | 1.9 ng/mL (≈ 2.97 nM) | 4.5 ng/mL (≈ 7.02 nM) | 2.3 ng/mL (≈ 3.59 nM) | –
14 | COc1c(C)cc2c(c1O)[C@@H]1[C@@H]3Cc4c(OC(C)=O)c(C)c5c(c4[C@H](CN4Cc6ccccc6C4=O)N3[C@@H](C#N)[C@H](C2)N1C)OCO5 [Compound 27] | – | – | – | – | 1.7 ng/mL (≈ 2.67 nM) | 0.71 ng/mL (≈ 1.12 nM) | 7.2 ng/mL (≈ 11.3 nM) | 2.2 ng/mL (≈ 3.46 nM) | –
15 | COc1c(C)cc2c(c1O)[C@@H]1[C@@H]3Cc4c(OC(C)=O)c(C)c5c(c4[C@H](CN4C(=O)c6ccccc6C4O)N3[C@@H](C#N)[C@H](C2)N1C)OCO5 (some centres unmarked) [Compound 28] | – | – | – | – | 2.7 ng/mL (≈ 4.14 nM) | 0.79 ng/mL (≈ 1.21 nM) | 22 ng/mL (≈ 33.7 nM) | 2.4 ng/mL (≈ 3.68 nM) | –
16 | COc1c(C)cc2c(c1O)[C@@H]1[C@@H]3Cc4c(OC(C)=O)c(C)c5c(c4[C@H](CN4C(=O)c6ccncc6C4=O)N3[C@@H](C#N)[C@H](C2)N1C)OCO5 [Compound 32] | – | – | – | – | 37 ng/mL (≈ 56.8 nM) | 0.36 ng/mL (≈ 0.552 nM) | 11 ng/mL (≈ 16.9 nM) | 2.1 ng/mL (≈ 3.22 nM) | –
17 | COc1c(C)cc2c(c1O)[C@@H]1[C@@H]3Cc4c(OS(C)(=O)=O)c(C)c5c(c4[C@H](CN4C(=O)c6ccccc6C4=O)N3[C@@H](C#N)[C@H](C2)N1C)OCO5 [Compound 44] | – | – | – | – | – | – | – | – | IC50 ([1]; read-out: IC50 PC-3): 0.59 ng/mL (≈ 0.859 nM); IC50 ([2]; A-375, read-out: IC50 A375): 0.2 ng/mL (≈ 0.291 nM); IC50 ([3]; A549, read-out: IC50 A-549): 1.2 ng/mL (≈ 1.75 nM); IC50 ([4]; HCT-116, read-out: IC50 HCT 116): 0.4 ng/mL (≈ 0.582 nM)
18 | C=CCOc1c(C)c2c(c3c1C[C@H]1[C@H]4c5c(cc(C)c(OC)c5O)C[C@@H]([C@H](C#N)N1[C@H]3CN1C(=O)c3ccccc3C1=O)N4C)OCO2 [Compound 45] | – | – | – | – | – | – | – | – | IC50 [1, 15]: 3.1 ng/mL (≈ 4.78 nM); IC50 [2, 16]: 0.98 ng/mL (≈ 1.51 nM); IC50 [3, 11]: 5.2 ng/mL (≈ 8.02 nM); IC50 [4, 14]: 2.1 ng/mL (≈ 3.24 nM)
19 | COc1c(C)cc2c(c1O)[C@@H]1[C@@H]3Cc4c(O)c(C)c5c(c4[C@H](CN4C(=O)c6ccccc6C4=O)N3[C@@H](C#N)[C@H](C2)N1C)OCO5 [Compound 48] | – | – | – | – | – | – | – | – | IC50 [1, 15]: 7.7 ng/mL (≈ 12.7 nM); IC50 [2, 16]: 2.5 ng/mL (≈ 4.11 nM); IC50 [3, 11]: 30 ng/mL (≈ 49.3 nM); IC50 [4, 14]: 6 ng/mL (≈ 9.86 nM)
20 | COc1c(C)cc2c(c1O)[C@@H]1[C@@H]3Cc4c(OC(C)=O)c(C)c5c(c4[C@H](CNC(=O)Cc4ccc(O)cc4)N3[C@@H](C#N)[C@H](C2)N1C)OCO5 [Compound 56] | – | – | – | – | 24 ng/mL (≈ 36.7 nM) | 6.5 ng/mL (≈ 9.93 nM) | > 100 ng/mL | 20 ng/mL (≈ 30.5 nM) | –
21 | COc1c(C)cc2c(c1O)[C@@H]1[C@@H]3Cc4c(OC(C)=O)c(C)c5c(c4[C@H](CNC(=O)c4ccccc4)N3[C@@H](C#N)[C@H](C2)N1C)OCO5 [Compound 63] | – | – | – | – | – | – | – | – | IC50 ([1]; read-out: IC50 Prostate): 0.4 ng/mL (≈ 0.64 nM); IC50 ([2]; A-375, read-out: IC50 Melanoma): 0.22 ng/mL (≈ 0.352 nM); IC50 ([3]; A549, read-out: IC50 Lung): 2 ng/mL (≈ 3.2 nM); IC50 ([4]; HCT-116, read-out: IC50 Colon): 0.37 ng/mL (≈ 0.592 nM)
22 | CNC(=O)Oc1c(C)c2c(c3c1C[C@H]1[C@H]4c5c(cc(C)c(OC)c5O)C[C@@H]([C@H](C#N)N1[C@H]3CN1C(=O)c3ccccc3C1=O)N4C)OCO2 [Compound 66] | – | – | – | – | – | – | – | – | IC50 ([1]; Table 7, additional analogs, read-out: IC50 Prostate): 2.1 ng/mL (≈ 3.15 nM); IC50 ([2]; A-375, Table 7, additional analogs, read-out: IC50 Melanoma): 0.92 ng/mL (≈ 1.38 nM); IC50 ([3]; A549, Table 7, additional analogs, read-out: IC50 Lung): 8.6 ng/mL (≈ 12.9 nM); IC50 ([4]; HCT-116, Table 7, additional analogs, read-out: IC50 Colon): 1.3 ng/mL (≈ 1.95 nM)
